{"source": "patent US20090220562A1", "about": "“Osteogenic and anti-adipogenic oxysterols” (priority 2005, published 2009)", "system": "lipoprotein lipase (LPL) and adipocyte P2 gene (aP2)", "test": "Northern blotting for adipogenic genes in troglitazone-treated M2 cells", "assay_type": "cell-based, mouse", "conditions": "10 μM Tro with 10 μM 20S, 10 days", "method": "RNA isolation and Northern blot analysis—Following treatment of cells under appropriate experimental conditions, total RNA was isolated using the RNA isolation kit from Stratagene (La Jolla, Calif., U.S.A.). Total RNA ([…]) was run on a 1% agarose/formaldehyde gel and transferred to Duralon-UV membranes (Strategene, CA, U.S.A.) and cross-linked with UV light. The membranes were hybridized overnight at 60 degree C. with ^32P-labeled mouse osteocalcin cDNA probe, mouse lipoprotein lipase (LPL), mouse adipocyte protein 2 (aP^2) PCR-generated probes, human 28S or 18S rRNA probes obtained from Geneka Biotechnology (Montreal, Quebec, Canada) and Maxim Biotech (San Francisco, Calif., U.S.A.), respectively. […] The extent of gene induction was determined by densitometry.\nTest 2: (A) M2 cells at confluence were treated in RPMI containing 10% FBS with control vehicle or 10 μM troglitazone (Tro) in the absence or presence of 10 μM 20S or 22S-hydroxycholesterol. After 10 days, adipocytes were visualized by oil Red O staining and quantified by light microscopy, shown in (B). […] After 10 days, total RNA was isolated and analyzed for lipoprotein lipase (LPL), adipocyte P2 gene (aP2) or 18S rRNA expression by Northern blotting as described (Ref). […]", "data": [{"smiles": "CC(C)CCC[C@](C)(O)[C@H]1CC[C@H]2[C@@H]3CC=C4C[C@@H](O)CC[C@]4(C)[C@H]3CC[C@@]21C", "note": "[20S-hydroxycholesterol]", "values": [{"measurement": "expression of adipocyte P2 gene (aP2)", "result": "inhibition of the expression"}, {"measurement": "expression of lipoprotein lipase (LPL)", "result": "inhibition of the expression"}]}]}
